Earlier results in US20160067227A1, “PHARMACEUTICAL COMBINATIONS FOR THE TREATMENT OF METABOLIC DISORDERS” (Boehringer Ingelheim International GmbH, priority 2012, published 2016).

Settings: metformin on its own, in the diabetic

For `CN(C)C(=N)N=C(N)N` [metformin], the “average improvement in the HbA1c value” is given as 1.0-1.5%.
